In patent publication US8058442B2 (Technion Research and Development Foundation Ltd., priority 2002, dated 2011):
Structures can show the parent of a compound that is named as a salt.

How the values were obtained:
PC12 cells = test: Neuroprotection of PC12 cells against serum-deprivation induced apoptosis (MTT test); type: cell-based, rat
Protocol: Rat PC12 cells, originated from rat pheochromocytoma, were grown at 37° C., in a humid 5% CO2, 95% air environment, in a growth medium containing Dulbecco's modified Eagle's Medium (DMEM, GIBCO, BRL) supplemented with glucose (1 mg/1 ml), 5% fetal calf serum, 10% horse serum, and 1% of a mixture of streptomycin/penicillin. On confluence, the culture was removed and the cells were detached by vigorous washing, centrifuged at 200 g for 5 min and resuspended in DMEM with full serum content. 0.5×10^4 cells/well were placed in microtiter plates (96 wells) precoated with collagen (10 μg/cm^2 were allowed to attach for 24 h before treatment).
Twenty-four hours after attachment of the PC12 cells as described in (g), the medium was replaced with DMEM containing 0.1% BSA. The test compounds were added to the cells after 1 h of incubation. After 24 h incubation, the cells were subjected to MTT test as previously described (Gassen et al., 1998). The absorption was determined in a Perkin-Elmer Dual Wavelength Eliza-Reader at λ=570/650 nm after automatic subtraction of background readings. The results are expressed as percentage of the untreated control.
PC12 cells were grown in serum-free medium alone or in serum-free medium with different concentration of the chelators VK-28, M32, HLA20 and Rasagiline. After 24 h incubation, the cells were subjected to MTT test.
Cell viability was expressed as a percentage of cells cultured in medium supplemented with serum, which served as the control group and was designated as 100%. […] Experimental data are shown as mean±SD (r=6).

rat brain MAO-A = target: T1, rat brain MAO-A (Rattus norvegicus, UniProt P21396); test: In vitro inhibition of rat brain MAO-A; type: biochemical; details: rat brain homogenate
T1 construct: from tissue; host or cells: rat brain homogenate, 4500 g pellet
T1 sequence (P21396 1-526): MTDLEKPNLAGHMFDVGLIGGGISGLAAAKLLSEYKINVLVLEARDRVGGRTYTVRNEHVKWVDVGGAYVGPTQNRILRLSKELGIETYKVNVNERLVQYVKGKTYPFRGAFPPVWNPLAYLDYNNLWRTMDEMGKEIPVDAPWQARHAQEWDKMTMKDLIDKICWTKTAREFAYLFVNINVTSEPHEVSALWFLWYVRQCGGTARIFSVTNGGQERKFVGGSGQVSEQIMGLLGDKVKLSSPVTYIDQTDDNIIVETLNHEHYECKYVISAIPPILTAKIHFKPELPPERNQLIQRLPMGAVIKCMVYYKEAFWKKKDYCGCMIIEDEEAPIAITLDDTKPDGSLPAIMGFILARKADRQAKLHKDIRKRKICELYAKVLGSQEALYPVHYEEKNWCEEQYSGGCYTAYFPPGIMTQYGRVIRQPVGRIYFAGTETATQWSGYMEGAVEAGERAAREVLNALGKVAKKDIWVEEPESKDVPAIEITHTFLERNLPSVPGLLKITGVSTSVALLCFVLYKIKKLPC
Protocol: (§1) Rats were decapitated and the brains were quickly taken into a weighted ice-cold sucrose buffer (0.32 M), and their weights were determined. All subsequent procedures were performed at 0-4° C. The brains were homogenized in 0.25 M sucrose (one part tissue to 20 parts sucrose) in a Teflon glass homogenizer followed by the addition of sucrose buffer to a final concentration of 10% homogenate. The homogenates were centrifuged at 600 g for 15 min. The supernatant fraction was taken out and centrifuged at 4500 g for 30 min, the pellet was diluted in 0.32 M sucrose buffer and kept frozen for later assaying of MAO. Protein concentration was determined with Bradford reagent at 595 nm, using bovine serum albumin as a standard.
(§2) The test compound was added to a suitable dilution of the enzyme preparation (70 μg protein for MAO-B and 150 μg MAO-A assay) in 0.05 M phosphate buffer (pH 7.4). The mixture was incubated together with […], a specific inhibitor of MAO-B (for determination of MAO-A) or […] clorgylin, a specific inhibitor of MAO-A (for determination of MAO-B). Incubation was carried for 1 h at 37° C. before addition of ^14C-5-hydroxytryptamine binoxalate ([…]) for determination of MAO-A, or ^14C-phenylethylamine 100 µM for determination of MAO-B, and incubation continued for 30 min or 20 min, respectively. The reaction was stopped with 2 M ice-cold citric acid, and the metabolites were extracted and determined by liquid-scintillation counting in cpm units.
(§3) MAO-A and MAO-B activities were determined in rat brain homogenate in vitro following incubation with varying concentrations of the test compounds.
In another experiment, the in vitro inhibitory activity of HLA20, M32, VK-28, M30, M31, and propargylamine (P) was tested against rat brain MAO-A. The test compounds were added to buffer containing 10^−7M deprenyl and were incubated with the tissue homogenate for 60 min at 37° C. before addition of ^14C-5-hydroxytryptamine. MAO-A activity in presence of the test compound was expressed as a percentage of that in control samples.

rat brain MAO-B = target: T2, rat brain MAO-B (Rattus norvegicus, UniProt P19643); test: In vitro inhibition of rat brain MAO-B; type: biochemical; details: 100 μM; read-out: inhibition of MAO-B
T2 construct: from tissue; host or cells: rat brain homogenate, 4500 g pellet
T2 sequence (P19643 1-520): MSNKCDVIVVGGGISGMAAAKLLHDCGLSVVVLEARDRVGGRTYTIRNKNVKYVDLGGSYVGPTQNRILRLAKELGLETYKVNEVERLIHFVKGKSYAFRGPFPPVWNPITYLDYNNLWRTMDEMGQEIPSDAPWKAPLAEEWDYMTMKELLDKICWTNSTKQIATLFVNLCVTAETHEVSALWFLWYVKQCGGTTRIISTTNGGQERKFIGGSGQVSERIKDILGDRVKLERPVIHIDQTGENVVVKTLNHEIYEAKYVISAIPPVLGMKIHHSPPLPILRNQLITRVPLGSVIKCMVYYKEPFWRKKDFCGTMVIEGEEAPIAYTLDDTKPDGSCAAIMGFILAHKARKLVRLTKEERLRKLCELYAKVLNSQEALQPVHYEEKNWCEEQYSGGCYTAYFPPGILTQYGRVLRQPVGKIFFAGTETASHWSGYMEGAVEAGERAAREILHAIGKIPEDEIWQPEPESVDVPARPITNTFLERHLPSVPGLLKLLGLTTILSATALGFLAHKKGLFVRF
Protocol: as §1, §2, §3
MAO-B activity in presence of the test compound was expressed as a percentage of that in control samples.

| melting point | effect on MAO-A (rat brain MAO-A) | inhibition at 100 µM (rat brain MAO-B) [%] | Structure (SMILES) | number of survival cells (cell viability, % of cells cultured with serum) (PC12 cells; 0.1 μM chelator, serum-free medium, 24 h, serum-free control 38%) [%] | change in the protection against PC12 cell death induced by serum withdrawal (PC12 cells; 1 or 10 μM, compared with 0.1 μM) |
| --- | --- | --- | --- | --- | --- |
| 153 to 154 °C |  |  | CCOC(=O)C(C)(NC(=O)Cc1ccc(O)c2ncccc12)C(=O)OCC [HLM7, diethyl 8-hydroxyquinolin-5-yl-methyl-acetamidomalonate] |  |  |
|  | almost no effect | 17.2 | CCOC(=O)C(CS)NCc1ccc(O)c2ncccc12 (stereo not drawn) [Compound M32] | 59 | no significant change in the protection |
| 194 °C (dec.) |  |  | NC(Cc1ccc(O)c2ncccc12)C(=O)O (racemic) (as salt: salt) [HLM8, DL-3-(8-hydroxyquinolin-5-yl)alanine] |  |  |
